# Assay results from patent publication US20250188194A1, “Method of treatment” (Nucleus Therapeutics Pty Ltd, priority 2021, published 2025).
# Entries after “also recorded” stand apart in the source; their conditions may differ.
# System: differentiated PLB-985 cells
# Assay: Quantifying DNA released (adherent NET-DNA) after PMA stimulation by spectrophotometry
# Assay type: cell-based, human
# Conditions: 1, 10 or 50 μM GSK484 one hour prior to PMA; N=2
# Description: The results of the DAPI and SYTOX™ Green staining studies in FIG. 2C, 2D are consistent with DX1-mediated inhibition of chromatin decondensation and DNA release by differentiated PLB-985 cells. To further probe this effect, DNA-protein release was measured by differentiated PLB-985 cells after PMA stimulation by resuspending and quantifying DNA-protein complexes adherent to wells by spectrophotometry using a previously described protocol for isolation and quantification of NET-DNA in cell culture. This assay is based on the concept that intact cells for the most part remain in suspension, while DNA-protein complexes released in NETs are at least partially adhered to wells. This distinction allows for separation of intact cells from adherent NET-DNA by aspiration of the cell culture supernatants, followed by resuspension of adherent DNA-protein complexes and quantification by spectrophotometry.
# Next, the ability of this assay to detect the effect of a known NETosis inhibitor on DNA release by differentiated PLB-985 cells stimulated by PMA was verified. […] Differentiated PLB-985 cells were treated with 0-50 μM of GSK484 for one hour prior to stimulation with PMA, followed by quantification of adherent DNA by spectrophotometry. […]
smiles,measurement,value
COc1cc(C(=O)N2CC[C@@H](O)[C@@H](N)C2)cc2nc(-c3cc4ccccc4n3CC3CC3)n(C)c12 [GSK484],DNA release in response to PMA (adherent DNA by spectrophotometry),reduced extracellular DNA in a dose-dependent manner; also recorded: dose-dependent inhibition of DNA release
